# Laboratory results reported in PubChem BioAssay AID449764 (Southern Research Specialized Biocontainment Screening …, 2010).
# Test system: Mycobacterium tuberculosis H37Rv growth inhibition, no glycerol
# Test: Mycobacterium tuberculosis H37Rv growth inhibition, no glycerol, confirmatory dose response (AID 449764);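 further: growth read after 7 days of incubation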
# Settings: measured here: IC90 growth inhibition
row,Compound,IC90 [µM]
1,Cc1cccc(OCc2n(CC(=O)OC3CC(C)CCC3C(C)C)c3ccccc3[n+]2C)c1 (stereo unspecified),10.4
2,C=C1C(=O)[C@@]23[C@H](O)C[C@@H]4C(C)(C)CC[C@H](O)[C@@]4(C)[C@@H]2CC[C@@H]1[C@H]3O,11.3
3,Cc1noc(C)c1COc1ccc(C(=O)OCC(=O)NC23CC4CC(CC(C4)C2)C3)cc1,35.5
4,Ic1ccccc1CN[C@@H]1C2CCN(CC2)[C@@H]1C(c1ccccc1)c1ccccc1,42.7
5,CCOC(=O)c1nc2sc3c(c2c(=O)[nH]1)CCC(C)C3 (stereo unspecified),> 100
6,COc1ccc(C(=O)Cn2nc(CNc3ccc(Br)cc3)[n+]3c2CCCCC3)cc1,14.1
7,CC(C)(C)OC(=O)NNC(=S)NC1CCCCC1,> 100
8,CCOC(=O)CNc1ccc(C(=O)OCC)cc1[N+](=O)[O-],> 100
9,Cc1[nH][nH]c(=O)c1C(c1ccc(-c2ccc(Cl)c(Cl)c2)o1)c1c(C)[nH][nH]c1=O,> 100
10,CCC(C)NC(=O)c1c(N)n(/N=C/c2ccccn2)c2nc3ccccc3nc12 (stereo unspecified),22.4
11,COc1cc(/C=N/n2c(-c3ccc4c(c3)NC(=O)CO4)csc2=Nc2cccc(C)c2)ccc1O,> 100
12,CCOC(=O)/C(=N/Nc1ccc(OC)cc1)N1CCCc2ccccc21,> 100
13,CCOC(=O)c1cc2cc3ccccc3cc2oc1=O,> 100
14,CC(C)(C)CC(C)(C)c1ccc(OCCOCC[N+](C)(C)Cc2ccccc2)cc1,47.1
15,Cc1ccc(Cl)cc1N1CCN(CC(=O)NC2CCCc3ccccc32)CC1 (stereo unspecified),51.1
16,N#C/C(N=Nc1ccccc1O)=N\Nc1ccccc1O,3.64
17,COc1ccccc1C1CC(c2ccc(Cl)cc2)Nc2ncnn21 (stereo unspecified),30.7
18,CCc1cc(/C(Cc2ccccn2)=N\Nc2ccccc2)c(O)cc1O,94.6
19,CN1CCN(c2ccc(S(=O)(=O)N3CCCCC3)cc2NC(=O)/C=C/c2ccc(Cl)c([N+](=O)[O-])c2)CC1,47.6
20,CN(C)C(=O)C1C2NC(=S)N(c3ccc(Cl)cc3)C1(C)Oc1ccc(Cl)cc12 (stereo unspecified),55.5
21,Cc1ccc(/C=C/S(=O)(=O)NCC(=O)OCC(=O)Nc2c(F)cccc2F)cc1,41.3
22,O=C(Nc1ncc(Cc2ccccc2Cl)s1)C1=NCCN1,> 100

row,Compound,IC90 [µM]
1,CCOC(=O)C(C)Sc1ncnc2c1nnn2-c1ccc(F)cc1 (stereo unspecified),9.68
2,O=C(/C=C/c1ccc(O)cc1)c1ccc(NC2=C(N3CCCCC3)C(=O)c3ccccc3C2=O)cc1,22.4
3,COc1cc2c(cc1OC)C(c1cc(Br)ccc1F)N(C(=O)CCl)CC2 (stereo unspecified),23
4,COC(=O)COc1ccc(-c2ccccc2)cc1C=O,26
5,CCc1ccc(C2c3[nH]c4ccccc4c3CCN2C(=O)c2ccc(=O)n(C)n2)cc1 (stereo unspecified),93.4
6,CC1CCN(C(=O)c2ccc(-c3ccccc3Cl)o2)CC1,60.1
7,COc1ccc(C(=O)C2CCCN(C3CSCCSC3)C2)c(C)c1 (stereo unspecified),44.9
8,CCc1ccc(-c2cc(C)no2)cc1S(=O)(=O)NCCCN1CCN(c2ccccc2)CC1,47.2
9,CCOC(=O)C1CCCc2c1[nH]c1c(C(N)=O)cccc21 (stereo unspecified),17.3
10,Cc1ccc(C)c(NC(=O)c2cc(-c3ccccc3)nn2-c2ccccc2)c1,55.9
11,COc1cc2c(cc1OC)C1(Nc3c-2c(-c2ccccc2)nn3-c2ccccc2)C(=O)Nc2ccccc21 (stereo unspecified),> 100
12,CCCCn1cnc2c(c(-c3ccccc3)c(-c3ccccc3)n2Cc2ccco2)c1=N,> 100
13,COc1ccc(OCC(=O)Nc2c(C(=O)N(CCN(C)C)Cc3ccco3)oc3ccccc23)cc1,45.9
14,CCNc1nc(Nc2ccc(C)c(Cl)c2)c2cnn(C)c2n1,> 100
15,O=C(CSc1nnnn1-c1ccc2c(c1)OCCO2)OC1CCCCC1,25.7
16,CCOc1cc2c3c(c1)C1(C(=O)N3C(C)(C)CC2C)C(C#N)=C(N)N2C(=C1C#N)Nc1ccccc12 (stereo unspecified),> 100
17,CCOc1ccc(-c2cc(C(=O)NCCCn3ccnc3)c3cc(Br)ccc3n2)cc1,27.6
18,O=C(OCc1ccccc1)/C(=C(\O)c1ccccc1Br)c1ccc(-c2ccccc2)cn1,49.3
19,Cc1ccc(S(=O)(=O)N2CCC(C(=O)OCc3ccccc3)CC2)cc1C,52.2
20,CC/C(C)=N/NC(=S)NCc1ccco1,91.7
21,CC(=O)N1CCN(c2ccc(Oc3ccc([N+](=O)[O-])c(C(F)(F)F)c3)cc2)CC1,> 100
22,Cc1cc(=O)oc2cc(Oc3ccc([N+](=O)[O-])cc3C(F)(F)F)ccc12,> 100

row,Compound,IC90 [µM]
1,COc1ccc(C2=NC(=O)/C(=C\c3cc(OC)c(OC)c(OC)c3)O2)cc1,16.2
2,CCc1cc2c(=O)n(C(C)C(=O)OC3CCCCC3)cnc2s1 (stereo unspecified),52
3,CCCc1cc(NC(=O)CCl)n(-c2ccccc2)n1,3.32
4,Cc1cc(C)n(-c2nc(Nc3ccccc3C(F)(F)F)nc(-n3nc(C)cc3C)n2)n1,2.01
5,Cc1cc(C)c2ccc(NN)nc2c1O,4.87
6,CCc1ccc(NC2=NCC(c3ccccc3)S2)cc1 (stereo unspecified),16.7
7,Cc1cccc(N2CCN(CC(=O)Nc3nccs3)CC2)c1C,69.2
8,CCOc1cc(/C=C2\COc3ccccc3C2=O)cc(Br)c1OCC(=O)N(C)C,11.5
9,CCOC(=O)COc1ccc(C2CC(C)=NN2c2ccccc2)cc1 (stereo unspecified),12.9
10,CC(=O)c1cccc(NC(=O)C2C3C=CC(C3=C(c3ccccc3)c3ccccc3)C2C(=O)O)c1 (stereo unspecified),> 50
11,C=C(C)C1CC=C(CN2CCN(Cc3ccccc3)CC2)CC1 (stereo unspecified),22
12,O=C(OCC(=O)N1CCN(C(=O)c2ccco2)CC1)c1cc(-c2cccc(Br)c2)nc2ccccc12,> 100
13,O=C(Nc1ccc(Oc2cccc(C(F)(F)F)c2)nc1)c1cccs1,> 100
14,CC(C)(C)NC(=O)C(c1c[nH]c2ccccc12)N(C(=O)Cn1nnc(-c2ccc(F)cc2)n1)c1cccc(O)c1 (stereo unspecified),45.6
15,N=c1oc2cc(O)ccc2cc1C(=O)Nc1ccc(Br)cc1,3.96
16,COc1ccc(-c2nc(CN3CCN(c4cc(C)nc(C)c4)CC3)c(C)o2)c2ccccc12,25.6
17,O=C(N[C@H]1CCC(=O)N(CCSc2ccc(Br)cc2)CC1)OCc1ccccc1,46.6
18,CCN1c2ccccc2N(C)C1(C)c1ccccc1 (stereo unspecified),10.5
19,CN1CCN(C2=Cc3ccc(Cl)cc3Sc3ccc(F)cc32)CC1,35.5
20,CCCCOc1ccc(-c2nnn(C(C)C(=O)OCC)n2)cc1 (stereo unspecified),8.73
21,CCC(=O)N1c2ccc(S(=O)(=O)CCC(=O)N3CCn4c3nc3ccccc34)cc2CC1C (stereo unspecified),27.5
22,CCOC(=O)C1CCN(CC(O)COc2ccc(C(C)(C)CC)cc2)CC1 (stereo unspecified),26.5

row,Compound,IC90 [µM]
1,Nc1c(C(=O)OCC2CCCO2)c2nc3ccccc3nc2n1C1CCCC1 (stereo unspecified),86.8
2,CC1=CC(=O)c2c(O)ccc(O)c2C1=O,7.87
3,CSc1cccc(CNC(=O)C2CCC(=O)N(Cc3cccc(C(F)(F)F)c3)C2)c1 (stereo unspecified),41.8
4,O=[N+]([O-])c1ccc(CN2CCN(c3ccc(Cl)cc3)CC2)o1,> 100
5,N#CCCN(C(=O)COC(=O)CCc1c[nH]c2ccccc12)c1ccc(F)cc1,68.5
6,S=c1nc2ccccc2c2nc(-c3ccccc3)[nH]n12,24.5
7,CC(C)Cn1c([N+](=O)[O-])nc2c1c(=O)[nH]c(=O)n2C,14.5
8,CC1CCCCC1NC(=O)c1ccc2c(c1)[nH]c(=O)n2C1CCCC1 (stereo unspecified),14.1
9,CCC(=O)c1ccc(OCC(=O)OCC(=O)c2cc(C)n(C3CC3)c2C)cc1,40.7
10,CC(C)Nc1nc(NC(C)C)nc(N(C)N)n1,47.9
11,CS(=O)(=O)c1ccc([C@@H](O)[C@@H](CF)NC(=O)C(Cl)Cl)cc1,27.8
12,CCOC(=O)c1csc(-c2snnc2C)n1,> 100
13,CC(=NCc1ccc2c(c1)OCO2)C1=C(O)c2ccccc2C1=O,1.4
14,CC(C)(C)c1csc(NC(=O)c2c(F)c(F)c(F)c(F)c2F)n1,29.4
15,Cc1ccc(/C=N/NC(=S)NC(C)C)o1,46.7
16,COc1ccc(/C=N/Nc2cc(N3CCCC3)nc(N3CCCC3)n2)cc1,24
17,Cc1cc2nc(C3CCN(CC4COc5ccccc5O4)CC3)[nH]c2cc1C (stereo unspecified),28.7
18,N#Cc1c(-c2ccccc2)c(-c2ccccc2)nn(CC(=O)NNC(=O)Nc2ccc(Cl)c(Cl)c2)c1=O,54.7
19,NCCCn1c(C(=O)c2ccc(Cl)cc2)c2ccc([N+](=O)[O-])cc2[n+]1[O-],44.2
20,COc1ccc(CNC(=O)c2c(N)n(CCCN3CCOCC3)c3nc4ccccc4nc23)cc1,> 100
